Assay results published in PubChem BioAssay (NCI).
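The compound was tested at five concentrations on cells cultured in 96-well plates, with a 48-hour exposure period. The concentration for 50% growth inhibition is given as GI50. TGI: concentration producing complete growth inhibition.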

What was measured:
Test in all cases: DTP human tumour cell line panel, 48 h
[1] = tested on: HCT-116 colon
[2] = tested on: A498 renal
[3] = tested on: HT29 colon
[4] = tested on: SK-OV-3 ovarian
[5] = tested on: MALME-3M melanoma
[6] = tested on: T-47D breast
[7] = tested on: SF-295 CNS
[8] = tested on: MCF7 breast
[9] = tested on: SNB-75 CNS
[10] = tested on: CAKI-1 renal

## COc1ccc(C(=O)c2cc(OC)c(C)c(OC)c2)cc1OC(=O)CCl
[1]
  GI50: 0.392 µM
  TGI: > 38.3 µM
[2]
  GI50: 2.09 µM
  TGI: 7.39 µM
[3]
  GI50: 4.21 µM
  TGI: 27.6 µM
[4]
  GI50: 0.76 µM
  TGI: > 100 µM
[5]
  GI50: 0.572 µM
  TGI: 48.1 µM
[6]
  GI50: 3.26 µM
  TGI: > 79 µM
[7]
  GI50: 0.764 µM
  TGI: 30.7 µM
[8]
  GI50: 0.361 µM
  TGI: > 100 µM
[9]
  GI50: 0.154 µM
  TGI: > 100 µM
[10]
  GI50: 0.591 µM
  TGI: 77.7 µM

## Oc1ccc(Cl)cc1Cc1cc(Cl)cc(Cl)c1O
[1]
  GI50: 3.53 µM
  TGI: 12.9 µM
[2]
  GI50: 8.73 µM
  TGI: 29.2 µM
[3]
  GI50: 19.8 µM
  TGI: 43.9 µM
[4]
  GI50: 2.93 µM
  TGI: 13.1 µM
[5]
  GI50: 3.68 µM
  TGI: 18.7 µM
[6]
  GI50: 2.47 µM
  TGI: 8.68 µM
[7]
  GI50: 6.66 µM
  TGI: 57.5 µM
[8]
  GI50: 3.51 µM
  TGI: 20.3 µM
[9]
  GI50: 5.14 µM
  TGI: 40.8 µM
[10]
  GI50: 7.86 µM
  TGI: 35.9 µM

## Cc1ccc(Cl)cc1Nc1nc(C(F)(F)F)ccc1C(=O)N1CCN(c2ccc(F)cc2)CC1
[1]
  GI50: 11.9 µM
  TGI: 26.3 µM
[2]
  GI50: 6.03 µM
  TGI: 20.2 µM
[3]
  GI50: 10.7 µM
  TGI: 23.9 µM
[4]
  GI50: 15.6 µM
  TGI: 36.1 µM
[5]
  GI50: 11.1 µM
  TGI: 23.4 µM
[6]
  GI50: 6.25 µM
  TGI: 42.6 µM
[7]
  GI50: 15.6 µM
  TGI: 32.5 µM
[8]
  GI50: 11.7 µM
  TGI: 38.7 µM
[9]
  TGI: 14.2 µM
[10]
  GI50: 1.53 µM
  TGI: 14.2 µM

## O=c1c2ccccc2[se]n1-c1cccnc1
[1]
  TGI: > 100 µM
[2]
  TGI: 61.9 µM
[3]
  TGI: > 100 µM
[4]
  TGI: > 100 µM
[5]
  TGI: 50.7 µM
[6]
  TGI: 57.3 µM
[7]
  TGI: > 100 µM
[8]
  TGI: 80.6 µM
[9]
  TGI: 43.8 µM
[10]
  TGI: > 100 µM

## COC(=O)/C=C/c1cc(O)c2oc(-c3ccc(O)c(O)c3)c(C(=O)OC)c2c1
[1]
  GI50: 0.329 µM
  TGI: 9.14 µM
[2]
  GI50: 1.95 µM
  TGI: 9.58 µM
[3]
  GI50: 3.24 µM
  TGI: 11.5 µM
[4]
  GI50: 1.13 µM
  TGI: 15.6 µM
[5]
  GI50: 0.397 µM
  TGI: 14.4 µM
[6]
  GI50: 0.577 µM
  TGI: 9.48 µM
[7]
  GI50: 3.13 µM
  TGI: 11.7 µM
[8]
  GI50: 0.286 µM
  TGI: 9.75 µM
[9]
  GI50: 0.0376 µM
  TGI: 1.41 µM
[10]
  GI50: 1.42 µM
  TGI: 15 µM

## Cc1ccc(C(SCC(N)C(=O)O)(c2ccccc2)c2ccc(C)cc2)cc1 (centres undefined)
[1]
  GI50: 0.0449 µM
  TGI: 7.06 µM
[2]
  GI50: 0.225 µM
  TGI: 4.5 µM
[3]
  GI50: 0.334 µM
  TGI: 3.38 µM
[4]
  GI50: 0.0811 µM
  TGI: 19.6 µM
[5]
  GI50: 2.57 µM
  TGI: 22.1 µM
[6]
  GI50: 0.333 µM
  TGI: 16.9 µM
[7]
  GI50: 0.167 µM
  TGI: 2.15 µM
[8]
  GI50: 0.0524 µM
  TGI: 15.4 µM
[9]
  GI50: 0.334 µM
  TGI: 17.7 µM
[10]
  GI50: 0.402 µM
  TGI: 20.1 µM

## COc1ccc2c(c1)C(C)Cc1c(Cl)ncnc1N2C (centres undefined)
[1]
  GI50: 0.434 µM
  TGI: 4.56 µM
[2]
  GI50: 0.23 µM
  TGI: 0.744 µM
[3]
  GI50: 0.33 µM
  TGI: 8.13 µM
[4]
  GI50: 0.504 µM
  TGI: 17.3 µM
[5]
  GI50: 0.294 µM
  TGI: 3.63 µM
[6]
  GI50: 2.02 µM
  TGI: 20.5 µM
[7]
  GI50: 0.375 µM
  TGI: > 48.1 µM
[8]
  GI50: 0.328 µM
  TGI: > 21.9 µM
[9]
  GI50: 0.557 µM
  TGI: > 54.6 µM
[10]
  GI50: 1.53 µM
  TGI: > 100 µM

## C=C(F)C(=O)N1CCN(c2nc(OC[C@@H]3CCCN3C)nc3c2CCN(c2cccc4cccc(Cl)c24)C3)C[C@@H]1CC#N
[1]
  GI50: 0.562 µM
  TGI: 1.88 µM
[2]
  GI50: 1.39 µM
  TGI: 2.86 µM
[3]
  GI50: 0.699 µM
  TGI: 2.42 µM
[4]
  GI50: 2.17 µM
  TGI: 4.94 µM
[5]
  GI50: 1.47 µM
  TGI: 2.98 µM
[6]
  GI50: 1.24 µM
  TGI: 3.07 µM
[7]
  GI50: 1.48 µM
  TGI: 3.13 µM
[8]
  GI50: 1.05 µM
  TGI: 2.96 µM
[9]
  GI50: 1.17 µM
  TGI: 2.67 µM
[10]
  GI50: 0.926 µM
  TGI: 2.44 µM
